# Results reported in the supplement of paper PMC5580409.
# System: Plasmodium falciparum 3D7
# Experiment: pEC50, asexual blood-stage growth inhibition
# Conditions: 72 h
# Protocol: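 Held-out test set measured in the Guy lab in 2014 with the same procedure as the primary St. Jude screen. P. falciparum 3D7 blood-stage culture (2% hematocrit, 1% parasitemia) was treated with compound for 72 h at 37 °C, and growth was read by SYBR Green I fluorescence. EC50 came from a four-parameter Hill fit over a 10-point dilution series […].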
row,Structure (SMILES),pEC50
1,Cc1ccc(NCC(O)Cn2c3ccccc3c3ccccc32)cc1 (stereo unspecified),< 4.82
2,CN(C)c1ccc(NC(=O)C2CC2c2ccccc2)cc1 (stereo unspecified),< 4.82
3,CCOC(=O)c1cnc2c(C)cccc2c1Nc1cccc(C(C)=O)c1,5.35
4,CCc1ccc(NC(=O)/C=C/c2ccccc2Cl)cc1,6.69
5,CCOC(=O)C1=C(C)NC2=C(C(=O)CC(c3ccco3)C2)C1c1ccc(OC)c(OC)c1 (stereo unspecified),< 4.82
6,COc1ccc(NCC(O)Cn2c3ccc(Cl)cc3c3cc(Cl)ccc32)c(OC)c1 (stereo unspecified),< 4.82
7,CCN1\C(=C/C=C(C)/C=C/c2sc3ccccc3[n+]2CC)Sc2ccccc21,5.34
8,O=C(Nc1ccc(-c2nc3ccccc3[nH]2)cc1)c1cncc(Br)c1,5.35
9,OCCC1CN(Cc2cc(Cl)ccc2O)CCN1CCc1ccccc1 (stereo unspecified),< 4.82
10,CCN1CCN(Cc2c(O)ccc3c(=O)c(Oc4ccccc4Br)c(C(F)(F)F)oc23)CC1,5.46
11,N=c1n(CCN2CCCCC2)c2ccccc2n1CC(O)COc1ccc(Cl)cc1 (stereo unspecified),5.33
12,COc1ccc(CNC2CCCCC2)cc1OCC(O)CN(C)Cc1ccccc1 (stereo unspecified),< 4.82
13,Cc1ccc(C)c(Oc2c(C(F)(F)F)oc3c(CN4CCN(C)CC4)c(O)ccc3c2=O)c1,< 4.82
14,Cc1onc(-c2c(Cl)cccc2Cl)c1C(=O)Nc1cc(Cl)ccc1Cl,6.54
15,CC1=C(C(=O)OCCOc2ccccc2)C(c2ccc(F)cc2)C2=C(CC(c3ccccc3)CC2=O)N1 (stereo unspecified),< 4.82
16,O=S(=O)(c1cccc(C(F)(F)F)c1)N1CCC(CO)(Cc2cccc(C(F)(F)F)c2)CC1,5.68
17,O=c1c(Oc2ccccc2)c(C(F)(F)F)oc2c(CN3CCCCC3)c(O)ccc12,< 4.82
18,COc1cc(CNn2nnnc2N)cc(Cl)c1OC,< 4.82
19,CCCCN(CCCC)CC(O)COc1ccccc1C (stereo unspecified),6.06
20,COc1ccc(S(=O)(=O)N2CCC(CO)(Cc3ccccc3C(F)(F)F)CC2)cc1,< 4.82
21,CCCCn1c(=N)n(CC(=O)c2ccc(Cl)cc2)c2ccccc21,< 4.82
22,CCOc1ccc(NCC(O)Cn2c3ccc(Cl)cc3c3cc(Cl)ccc32)cc1 (stereo unspecified),5.13

row,Structure (SMILES),pEC50
1,OC(CNc1ccccc1)Cn1c2ccc(Cl)cc2c2cc(Cl)ccc21 (stereo unspecified),5.36
2,C=CCN1C(=O)N(c2ccc(Cl)cc2)C(=O)C1CC(=O)Nc1ccc(F)cc1 (stereo unspecified),< 4.82
3,CCn1c(SCC(=O)Nc2cc(C(F)(F)F)ccc2Cl)nnc1-c1ccccc1Cl,< 4.82
4,CCOc1ccc(-c2nonc2NC(=O)c2ccco2)cc1,6.71
5,Clc1ccc(CN2CCN(C3CC4CCC3C4)CC2)cc1 (stereo unspecified),< 4.82
6,CCOc1ccccc1Oc1c(C(F)(F)F)oc2c(CN3CCCCCC3)c(O)ccc2c1=O,< 4.82
7,O=C(NC1CCCCC1)c1cn(C2CC2)cc(C(=O)NC2CCN(Cc3ccccc3)CC2)c1=O,< 4.82
8,CCOC(=O)c1cccc(NC(=O)CC2C(=O)N(c3ccc(F)cc3)C(=O)N2Cc2ccccn2)c1 (stereo unspecified),< 4.82
9,O=C1CC(c2c(F)cccc2Cl)C2=C(CC(c3ccc(F)cc3)CC2=O)N1 (stereo unspecified),< 4.82
10,Cc1cc(C)nc(Nc2ncc(O)n2-c2cccc(C(F)(F)F)c2)n1,< 4.82
11,COc1ccc(C(O)Cn2c(=N)n(CCN3CCCCC3)c3ccccc32)cc1 (stereo unspecified),< 4.82
12,CCN(CC)CCN1C(=O)c2ccccc2NC1c1ccc(Cl)cc1Cl (stereo unspecified),< 4.82
13,Cc1nn(C)c(C(=O)NNC(=O)Nc2ccc([N+](=O)[O-])cc2)c1Cl,6.93
14,O=c1c2ccccc2nc(SCc2cn3ccccc3n2)n1Cc1ccco1,< 4.82
15,N=c1n(CCN2CCOCC2)c2ccccc2n1CC(O)COc1ccccc1 (stereo unspecified),< 4.82
16,N=c1n(CCN2CCCC2)c2ccccc2n1CC(O)c1ccc(Cl)c(Cl)c1 (stereo unspecified),5.88
17,CCC(C(=O)Nc1ccc(-c2nc3ccccc3[nH]2)cc1)c1ccccc1 (stereo unspecified),< 4.82
18,COc1ccc(OC)c(C2CC(=O)C3=C(C2)NC(=O)CC3c2ccc(Cl)cc2Cl)c1 (stereo unspecified),< 4.82
19,O=C(Cc1ccccc1)Nc1ccc(-c2nc3cc(NC(=O)Cc4ccccc4)ccc3[nH]2)cc1,< 4.82
20,O=C(NC1CCN(Cc2ccccc2)CC1)c1cc(-c2ccncc2)nc2ccc(Cl)cc12,5.54
21,COc1ccc(CC2(CO)CCN(S(=O)(=O)c3cccc(C(F)(F)F)c3)CC2)cc1,< 4.82
22,C=CCn1c(=O)/c(=C/C=C2\C=CN(CC)c3ccccc32)s/c1=C\c1sc(-c2ccccc2)c(-c2ccccc2)[n+]1CC,5.37

row,Structure (SMILES),pEC50
1,COc1ccc(C2CC(=O)C3=C(C2)NC(=O)CC3c2ccc(Cl)cc2Cl)cc1OC (stereo unspecified),5.7
2,OCCC1CN(Cc2cc(Cl)ccc2O)CCN1Cc1ccccc1 (stereo unspecified),< 4.82
3,COc1cc(OC)cc(C(=O)Nc2ccc(-c3nc4cc(C)ccc4[nH]3)cc2)c1,5.29
4,CN1CCN([C@@H]2CCN(Cc3cc(Cl)ccc3O)C[C@H]2O)CC1,< 4.82
5,O=C(Cc1cccc2ccccc12)Nc1ccc(-c2nc3ccccc3[nH]2)cc1,5.57
6,N=c1n(CCN2CCCCC2)c2ccccc2n1CC(O)c1cccc2ccccc12 (stereo unspecified),5.49
7,OC(CNC1CCCCC1)COc1ccc(OCc2ccccc2)cc1 (stereo unspecified),< 4.82
8,COCCNCC(O)Cn1c2ccc(Cl)cc2c2cc(Cl)ccc21 (stereo unspecified),5.63
9,COc1ccc(CCN2C(=O)N(c3cccc(Cl)c3)C(=O)C2CC(=O)Nc2ccc(F)cc2)cc1 (stereo unspecified),< 4.82
10,CCOC(=O)C1=C(C)NC2=C(C(=O)CC(c3ccc(Cl)cc3)C2)C1c1ccc(OCC)cc1 (stereo unspecified),< 4.82
11,CC(Nc1cc(N2CCN(C(=O)c3ccccc3)CC2)ccc1[N+](=O)[O-])c1ccccc1 (stereo unspecified),6.18
12,CC(C)c1ccc(/C=C/C(=O)Nc2cccc(Cl)c2)cc1,< 4.82
13,OC(CNc1ccccc1)Cn1c2ccccc2c2ccccc21 (stereo unspecified),< 4.82
14,CN1CCN(Cc2c(O)ccc3c(=O)c(Oc4ccc5ccccc5c4)c(C(F)(F)F)oc23)CC1,< 4.82
15,Cc1cccc(Oc2c(C(F)(F)F)oc3c(CN4CCC(C)CC4)c(O)ccc3c2=O)c1,< 4.82
16,CCN(CC)c1nc(Nc2cccc(Br)c2)nc(Nc2cc(C)ccc2C)n1,< 4.82
17,Cc1ccc2c(c1)c1c3n2CCCN(Cc2ccc(Br)cc2)C3CCC1 (stereo unspecified),< 4.82
18,Cc1ccc2c(c1)c1c3n2CCCN(Cc2ccc(C(C)C)cc2)C3CCC1 (stereo unspecified),< 4.82
19,CCn1ncc(Cl)c1C(=O)Nc1ccc(C)c([N+](=O)[O-])c1,< 4.82
20,COC(=O)c1ccc(NC(=O)/C=C/c2ccccc2Cl)cc1,5.26
21,Nc1ccc(-c2nc3cc(-c4nc5cc(N)ccc5[nH]4)ccc3[nH]2)cc1,5.64
22,Cc1cc(S(=O)(=O)N2CCC(CO)(Cc3cccc(C(F)(F)F)c3)CC2)c(C)cc1Cl,< 4.82

row,Structure (SMILES),pEC50
1,COc1cccc(CNc2nnnn2C)c1OCc1ccc(C)cc1,< 4.82
2,COc1ccc(C2CC(=O)NC3=C2C(=O)CC(c2ccccc2)C3)cc1OC (stereo unspecified),5.34
3,CCOC(=O)c1cnc2c(Cl)cccc2c1Nc1cccc(C(C)=O)c1,5.35
4,O=C(Nc1ccncc1)C1CC1c1ccccc1 (stereo unspecified),< 4.82
5,COc1ccccc1-c1c(C(F)(F)F)oc2c(CN3CCC(C)CC3)c(O)ccc2c1=O,< 4.82
6,OC(CNc1cccc2ccccc12)Cn1c2ccccc2c2ccccc21 (stereo unspecified),< 4.82
7,CCCCn1nnnc1NCc1ccc(OC)c(OC)c1OC,6.32
8,COC(=O)C1=C(C)NC2=C(C(=O)CC(c3ccc(Cl)cc3)C2)C1c1cccc(O)c1 (stereo unspecified),< 4.82
9,Cc1cccc(C2(c3cccc(C)c3)CC2C(=O)Nc2ccc([N+](=O)[O-])cc2O)c1 (stereo unspecified),5.36
10,Cc1ccc2[nH]c(-c3ccc(NC(=O)c4ccc(C)c(C)c4)cc3)nc2c1,5.44
11,CCCCNC(=O)c1cn(C2CCCCC2)cc(C(=O)NC2CCN(Cc3ccccc3)CC2)c1=O,< 4.82
12,Nc1ccc(C(=O)Nc2ccc(-c3nc4cc(NC(=O)c5ccc(N)cc5)ccc4[nH]3)cc2)cc1,< 4.82
13,Cc1ccc(NCC(O)Cn2c3ccc(Cl)cc3c3cc(Cl)ccc32)cc1 (stereo unspecified),5.28
14,COc1ccccc1-c1c(C(F)(F)F)oc2c(CN3CCCC3)c(O)ccc2c1=O,< 4.82
15,CC(C)c1ccc(/C=C/C(=O)Nc2ccc(C(C)C)cc2)cc1,< 4.82
16,Cc1ccc(C)c(NCC(O)Cn2c3ccccc3c3ccccc32)c1 (stereo unspecified),< 4.82
17,O=C(Nc1ccc(-c2nc3cc(-c4nc5cc(NC(=O)c6cccc7ccccc67)ccc5[nH]4)ccc3[nH]2)cc1)c1cccc2ccccc12,< 4.82
18,CCOC(=O)c1c(C)oc2ccc(OC)cc12,< 4.82
19,C=CCN1C(=O)CS/C1=C\c1sc2ccccc2[n+]1CC,5.31
20,CCCCNCC(O)COc1ccc(Cl)c(C)c1 (stereo unspecified),5.14
21,Cc1ccc(OCC(O)CNC2CCCC2)cc1C (stereo unspecified),5.85
22,C=CCn1c(=N)n(CC(O)c2cccc(Br)c2)c2ccccc21 (stereo unspecified),5.66

row,Structure (SMILES),pEC50
1,O=C(c1ccccc1)N1CCN(c2ccc([N+](=O)[O-])c(NC3CC3)c2)CC1,< 4.82
2,COc1ccc(OC)c(C2CC(=O)NC3=C2C(=O)CC(c2ccc(OC)c(OC)c2)C3)c1 (stereo unspecified),< 4.82
3,Oc1ccc(Br)cc1CN1CCN(C2CCCCCC2)CC1,6.34
4,O=C(Cc1ccc(Br)cc1)Nc1cccc(-c2nc3ccccc3[nH]2)c1,< 4.82
5,COC(=O)[C@@H](NC(=O)c1cn(C2CCCCC2)cc(C(=O)NC(C)(C)C)c1=O)c1ccccc1,< 4.82
6,OC(CNC1CCCC1)COc1ccccc1-c1ccccc1 (stereo unspecified),< 4.82
7,Oc1ccc(Br)cc1CN1CCN(c2cccc(Cl)c2)CC1,6.06
8,O=C1CC(c2ccc(Cl)c([N+](=O)[O-])c2)C2=C(CC(c3cccs3)CC2=O)N1 (stereo unspecified),< 4.82
9,OC(CNCCOc1ccccc1)Cn1c2ccccc2c2ccccc21 (stereo unspecified),< 4.82
10,COc1ccc(OC)c(C2CC(=O)C3=C(C2)NC(=O)CC3c2cccc(Cl)c2Cl)c1 (stereo unspecified),5.61
11,CN(C)c1ccc(NC(=O)/C=C/c2cccc(Cl)c2)cc1,6.39
12,OC(CN1CCCCCC1)Cn1c2ccccc2c2ccccc21 (stereo unspecified),< 4.82
13,CCCCn1c(=N)n(CC(O)c2ccc(OC)cc2)c2ccccc21 (stereo unspecified),< 4.82
14,O=S(=O)(c1ccccc1)N1CCC(CO)(Cc2ccccc2C(F)(F)F)CC1,< 4.82
15,OC(CNCCc1ccccc1)COc1ccccc1Cl (stereo unspecified),5.3
16,Cc1cccc2c(C(=O)N3CCN(C/C=C/c4ccccc4)CC3)cc(-c3cccnc3)nc12,< 4.82
17,CCCCn1c(=N)n(CC(=O)c2ccc(Br)cc2)c2ccccc21,< 4.82
18,Cc1ccc(OCC(O)Cn2c(=N)n(CCN3CCOCC3)c3ccccc32)cc1 (stereo unspecified),< 4.82
